# Test system: White Leghorn chickens
# Assay type: in vivo
# Settings: oral gavage, 100 μg human IgG together with the adjuvant, two hens per group
row,Compound,titers (antibodies in egg yolk)
1,"CCCCCCCCCCCCCCCCCC[N+](C)(C)CCCCCCCCCCCCCCCCCC.[Br-] [DDA, Dimethyl dioctadecyl ammonium bromide]",no or very low titers
2,CTB,One of four chickens in the CTB-group showed high titers

# Reference: US20040241310A1, “Method of producing antibodies ex-vivo” (priority 2001, published 2004)
